# How the values were obtained:
# [1] = tested on: MCAO induced brain injury; test: Neurological deficit score after MCAO, EC treatment; assay type: in vivo, mouse; conditions: for NDS: HO1WT mice
# From the text: Motor deficits were graded by sensorimotor performance or neurological score by the method of Longa et al. (Stroke. 20:84-91.1989). […] (1) no deficit, (2) forelimb weakness, (3) inability to bear weight on the affected side, (4) no spontaneous motor activity. Epicatechin (EC) was given orally (per kilogram of body weight) through gavage and precautions were taken not only to minimize the stress to animals but also careful administration of the drug solution. For pre-treatment studies, a single dose of EC was given 90 minutes before middle cerebral artery occlusion (MCAO). […] MCAO procedure was slightly modified from the methods previously published by Shah et al. (Shah, et al. in press, 2006). […] To measure relative cerebral blood flow (CBF), mice were placed in a porcine posture on a temperature controlled heat blanket (37° C.). Under an operating microscope, a 0.5-mm diameter microfiber was glued to the skull (over the area of parietal cortex) with cyanoacrylate glue (Super Glue Gel, Ross Products, Inc.) approximately 6 mm lateral and 1 mm posterior of bregma and connected to a laser-Doppler flowmeter (DRT4, Moor Instruments Ltd, Devon, England). Mice were allowed to return to supine position and a neck midline-incision was made to expose the right common carotid artery (CCA), external carotid artery (ECA), and internal carotid arteries (ICA) after dissecting in through out thyroid glands. All the arteries were separated from the vagus nerve. A specially devised method for making 7-0 Ethilon nylon filament (Ethicon, Inc., Somarville, N.J.) with 5 mm of the tip coated with silicone (Cutter Sil Light and Universal Hardener, Heraeus Kulzer, GmbH, Hanau, Germany) was employed and the filament was introduced into the ICA through the ECA stump to block the blood circulation to MCA or circle of Willis. The filament was carefully advanced up to 11 mm from the carotid artery bifurcation or until resistance was felt. […] CFB was monitored for up to 5 minutes and mice not attaining the required drop were terminated from the study. Cortical perfusion values were expressed as a percentage relative to baseline. Animals were shifted to a humidity/temperature-controlled chamber at 32° C. to maintain the body temperature during the 90 minutes of MCA occlusion, at 37° C. For reperfusion mice were briefly anesthetizing and filament was withdrawn. After suturing the neck, midline wound mice were again returned to a humidity/temperature-controlled chamber for 2 h to maintain the body temperature at 37° C. and then later shifted to their respective cages.
# [2] = previous toxicological studies (Galati et al 2006); cited from earlier work
# HO1 WT mice = test: 72 h survival after MCAO, EC post-treatment; assay type: in vivo, mouse; conditions: EC 30 mg/kg after 2 h or 4.5 h of reperfusion, 10 survived with vehicle
# [3] = tested on: MCAO induced brain injury; test: Corrected infarct volume (TTC) after MCAO, EC treatment; assay type: in vivo, mouse
# Protocol: After 24 or 72 h of reperfusion, mice were anesthetized, and their brains dissected out and cut into 2-mm coronal sections. Brain slices were stained with 2,3,5-triphenyltetrazolium chloride (TTC, Sigma Co, St. […] Cerebral cortex and striatum volumes in ipsilateral necrotic lesion and contralateral normal side of the brain were measured multiplying the sum of the areas by the distance between sections. Infarct volume was indirectly calculated by subtracting the volume of intact tissue in the ipsilateral hemisphere from that of the contralateral hemisphere and expressed as the percentage of infarct area to the total hemispheric area for each slice. Epicatechin (EC) was given orally (per kilogram of body weight) through gavage and precautions were taken not only to minimize the stress to animals but also careful administration of the drug solution. For pre-treatment studies, a single dose of EC was given 90 minutes before middle cerebral artery occlusion (MCAO). […] MCAO procedure was slightly modified from the methods previously published by Shah et al. (Shah, et al. in press, 2006). […] To measure relative cerebral blood flow (CBF), mice were placed in a porcine posture on a temperature controlled heat blanket (37° C.). Under an operating microscope, a 0.5-mm diameter microfiber was glued to the skull (over the area of parietal cortex) with cyanoacrylate glue (Super Glue Gel, Ross Products, Inc.) approximately 6 mm lateral and 1 mm posterior of bregma and connected to a laser-Doppler flowmeter (DRT4, Moor Instruments Ltd, Devon, England). Mice were allowed to return to supine position and a neck midline-incision was made to expose the right common carotid artery (CCA), external carotid artery (ECA), and internal carotid arteries (ICA) after dissecting in through out thyroid glands. All the arteries were separated from the vagus nerve. A specially devised method for making 7-0 Ethilon nylon filament (Ethicon, Inc., Somarville, N.J.) with 5 mm of the tip coated with silicone (Cutter Sil Light and Universal Hardener, Heraeus Kulzer, GmbH, Hanau, Germany) was employed and the filament was introduced into the ICA through the ECA stump to block the blood circulation to MCA or circle of Willis. The filament was carefully advanced up to 11 mm from the carotid artery bifurcation or until resistance was felt. […] CFB was monitored for up to 5 minutes and mice not attaining the required drop were terminated from the study. Cortical perfusion values were expressed as a percentage relative to baseline. Animals were shifted to a humidity/temperature-controlled chamber at 32° C. to maintain the body temperature during the 90 minutes of MCA occlusion, at 37° C. For reperfusion mice were briefly anesthetizing and filament was withdrawn. After suturing the neck, midline wound mice were again returned to a humidity/temperature-controlled chamber for 2 h to maintain the body temperature at 37° C. and then later shifted to their respective cages.
# [4] = Physiological parameters (pH, PaCO2, PaO2) of mice treated with vehicle and EC; assay type: in vivo, mouse; conditions: different drug concentrations and vehicle
# Protocol: In a separate cohort of mice (5 WT; 5 Nrf2^−/−) that underwent an identical stroke protocol, including CBF monitoring, blood samples were collected through a PE-10 femoral artery catheter (Intramedic; BD Diagnostic Systems, Sparks, Md.) 30 minutes before MCAO, 1 hour after initiation of MCAO, and 1 hour after reperfusion. The blood was evaluated for pH, PaO2, and PaCO2 via blood gas analysis (Rapidlab 248; Chiron Diagnostic Corporation, Norwood, Mass.). In some experiments, blood was drawn intermittently at different intervals of time; 30 minutes before MCAO, 1 h after the initiation of MCAO, and 1 h after reperfusion.
smiles,measurement,setting,value
"Oc1cc(O)c2c(c1)O[C@H](c1ccc(O)c(O)c1)[C@H](O)C2 [EC, (−)-Epicatechin]",neurological deficit score,"[1]; HO1 WT mice, EC 2.5 mg/kg pre-treatment, no difference vs vehicle",3.3±0.29
same,neurological deficit score,"[1]; HO1 WT mice, EC 5 mg/kg pre-treatment",3±0.35
same,neurological deficit score,"[1]; HO1 WT mice, EC 15 mg/kg pre-treatment",2.7±0.39
same,NDS,"[1]; EC 30 mg/kg 6 h post-treatment, vehicle 2.3±0.16, not significant",1.8±0.1
same,neurological deficit score,"[1]; HO1 WT mice, EC 30 mg/kg at 3.5 h, scored at 24 h of reperfusion, vehicle 3.5±0.26",2.8±0.3
same,neurological deficit score,"[1]; HO1 WT mice, EC 30 mg/kg at 6 h, scored at 24 h of reperfusion, vehicle 3.5±0.26",1.8±0.1
same,NDS,"[1]; EC 30 mg/kg post-treatment (3.5 h after MCAO), vehicle 2.3±0.1",1.8±0.1
same,neurological deficit score,"[1]; HO1 WT mice, EC 30 mg/kg pre-treatment",2.5±0.25
same,neurological deficit score,"[1]; Nrf2 WT mice, EC 30 mg/kg pre-treatment, 24 h, vehicle 3.1±0.26",2.3±0.1
same,neurological deficit score,"[1]; Nrf2−/− mice, EC 30 mg/kg pre-treatment, 24 h, vehicle 3.5±0.1, not significant",3.4±0.17
same,safe dose,[2],up to 150 mg
same,mice surviving 72 h (of 12 per group),HO1 WT mice,12 mice
same,corrected infarct volume,"[3]; HO1 WT mice, EC 2.5 mg/kg oral 90 min before MCAO, 24 h reperfusion, not significant",33.8±3.3%
same,corrected infarct volume,"[3]; HO1 WT mice, EC 5 mg/kg oral 90 min before MCAO, 24 h reperfusion",28.8±2.9%
same,corrected infarct volume,"[3]; HO1 WT mice, EC 15 mg/kg oral 90 min before MCAO, 24 h reperfusion",24.9±3.8%
same,infarct volume,"[3]; HO1 WT mice, EC 30 mg/kg after 2 h of reperfusion, 72 h, vehicle 46.6±5.3, in %",33.5±3.2
same,corrected infarct volume,"[3]; HO1 WT mice, EC 30 mg/kg oral 90 min before MCAO (90 min), 24 h reperfusion, vehicle 34.2±3.4%",20.1±2.7%
same,infarction volume,"[3]; HO1WT mice, EC 30 mg/kg post-treatment (3.5 h after MCAO), 72 h survival, vehicle 46.6±5.3%",33.5±3.2%
same,infarct volume,"[3]; HO1−/− mice, EC 30 mg/kg 90 min before MCAO, 24 h reperfusion, vehicle 37.1±3.9%, not significant",33.8±3.2%
same,infarct volume,"[3]; Nrf2 WT mice, EC 30 mg/kg 90 min before MCAO, 24 h reperfusion, vehicle 31.3±1.9%",24.1±1.8%
same,corrected infarct volume,"[3]; Nrf2−/− mice, EC 30 mg/kg 90 min before MCAO, 24 h reperfusion, vehicle 44.8±4.6, not significant, in %",43.0±2.4
same,"physiological parameters (pH, PaCo2, Pao2) vs vehicle",[4],no differences
